In US6737383B1, “Herbicidal oxadiazolidines” (priority 1999, dated 2004):

How the values were obtained:
sugar beet = assay: Test B pre/postemergence sugar beet; assay type: in vivo, Beta vulgaris
Outline: (§1)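 Herbicidal effect was estimated by eye on a ten-point control scale after plants spent twelve to sixteen days in a greenhouse following soil or foliar treatment. Foliar sprays targeted plants at one to four leaves; all doses were formulated in a non-phytotoxic solvent with surfactant.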

purple nutsedge = assay: Test B pre/postemergence purple nutsedge; assay type: in vivo, Cyperus rotundus
Outline: as §1

pigweed = assay: Test B pre/postemergence pigweed; assay type: in vivo, Amaranthus retroflexus
Outline: as §1

rice = assay: Test B flood test rice; assay type: in vivo, Oryza sativa; conditions: for Plant response rating, Rice: Rate 500 g/ha
Outline: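 Each value is a visual injury score relative to controls, with 10 meaning complete control and 0 no effect. Evaluation took place twelve to sixteen days after the 2-leaf-stage plants were treated and kept in the greenhouse.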

[1] = Postemergence, Rate 62 g/ha, scale 0 to 10, 0 is no effect, 10 is complete control
[2] = Postemergence, Rate 250 g/ha, scale 0 to 10, 0 no effect, 10 complete control
[3] = Preemergence, Rate 62 g/ha, scale 0 to 10 (0 no effect, 10 complete control)
[4] = Preemergence, Rate 125 g/ha, scale 0 to 10 (0 no effect, 10 complete control)
[5] = Preemergence, Rate 250 g/ha, scale of 0 to 10 where 0 is no effect and 10 is complete control
[6] = Preemergence, Rate 500 g/ha, scale 0 (no effect) to 10 (complete control)
[7] = Rate 125 g/ha, Postemergence, scale 0 to 10, 0 no effect, 10 complete control
[8] = Rate 500 g/ha, Postemergence, scale 0 to 10, 0 no effect, 10 complete control
[9] = Rate 62 g/ha, headed Pre-emergence (flood test species), scale 0 to 10 (0 no effect, 10 complete control)
[10] = Rate 125 g/ha, Pre-emergence, flood test species, scale 0 to 10 where 0 is no effect and 10 is complete control
[11] = Rate 250 g/ha, headed Pre-emergence (flood test species), scale 0 to 10 (0 no effect, 10 complete control)
[12] = headed Pre-emergence (flood test species), scale 0 to 10 (0 no effect, 10 complete control)
[13] = Postemergence, Rate 125 g/ha, scale of 0 to 10 where 0 is no effect and 10 is complete control
[14] = Preemergence, Rate 125 g/ha, 0 is no effect, 10 is complete control
[15] = Preemergence, Rate 250 g/ha, scale 0 to 10, 0 is no effect, 10 is complete control
[16] = Preemergence, Rate 500 g/ha, scale 0 to 10 (0 no effect, 10 complete control)
[17] = Rate 62 g/ha, Postemergence, scale of 0 to 10 where 0 is no effect and 10 is complete control
[18] = Rate 250 g/ha, Postemergence, scale 0 to 10, 0 is no effect, 10 is complete control
[19] = Rate 500 g/ha, Postemergence, scale 0 to 10

Cc1ccccc1-n1c(=O)on(C(=O)N(Cc2ccccc2)C(C)C)c1=O [Compound 72]
0: Sugarbeets plant response rating (sugar beet; [1]) | Sugarbeets plant response rating (sugar beet; [2]) | Sugarbeets plant response rating (sugar beet; [3]) | Plant response rating, Sugarbeets (sugar beet; [4]) | Plant response rating, Sugarbeets (sugar beet; [5]) | Sugarbeets plant response rating (sugar beet; [6]) | Sugarbeets plant response rating (sugar beet; [7]) | Sugarbeets plant response rating (sugar beet; [8]) | Nutsedge plant response rating (purple nutsedge; [1]) | Nutsedge plant response rating (purple nutsedge; [2]) | Nutsedge plant response rating (purple nutsedge; [3]) | Plant response rating, Nutsedge (purple nutsedge; [4]) | Plant response rating, Nutsedge (purple nutsedge; [5]) | Nutsedge plant response rating (purple nutsedge; [6]) | Nutsedge plant response rating (purple nutsedge; [7]) | Nutsedge plant response rating (purple nutsedge; [8]) | Redroot pigweed plant response rating (pigweed; [1]) | Redroot pigweed plant response rating (pigweed; [2]) | Redroot pigweed plant response rating (pigweed; [3]) | Plant response rating, Redroot pigweed (pigweed; [4]) | Plant response rating, Redroot pigweed (pigweed; [5]) | Redroot pigweed plant response rating (pigweed; [6]) | Redroot pigweed plant response rating (pigweed; [7]) | Redroot pigweed plant response rating (pigweed; [8]) | Rice plant response rating (rice; [9]) | Rice plant response rating (rice; [10]) | Rice plant response rating (rice; [11]) | Plant response rating, Rice (rice; [12])

CC(C)N(C(=O)n1oc(=O)n(C(C)(C)C)c1=O)c1ccccc1 [Compound 129]
6: Plant response rating, Rice (rice; [12])
2: Sugarbeets plant response rating (sugar beet; [3]) | Redroot pigweed plant response rating (0 to 10 scale) (pigweed; [14]) | Redroot pigweed plant response rating (pigweed; [15]) | Plant response rating, Redroot pigweed (pigweed; [18])
8: Rice plant response rating (rice; [11])
3: Sugarbeets plant response rating (0 to 10 scale) (sugar beet; [14]) | Sugarbeets plant response rating (sugar beet; [15]) | Redroot pigweed plant response rating (pigweed; [19])
0: Sugarbeets plant response rating (sugar beet; [13]) | Sugarbeets plant response rating (sugar beet; [17]) | Plant response rating, Sugarbeets (sugar beet; [18]) | Sugarbeets plant response rating (sugar beet; [19]) | Nutsedge plant response rating (purple nutsedge; [13]) | Nutsedge plant response rating (purple nutsedge; [3]) | Nutsedge plant response rating (0 to 10 scale) (purple nutsedge; [14]) | Nutsedge plant response rating (purple nutsedge; [15]) | Nutsedge plant response rating (purple nutsedge; [16]) | Nutsedge plant response rating (purple nutsedge; [17]) | Plant response rating, Nutsedge (purple nutsedge; [18]) | Nutsedge plant response rating (purple nutsedge; [19]) | Redroot pigweed plant response rating (pigweed; [13]) | Redroot pigweed plant response rating (pigweed; [3]) | Redroot pigweed plant response rating (pigweed; [17]) | Rice plant response rating (rice; [9]) | Rice plant response rating (rice; [10])
5: Sugarbeets plant response rating (sugar beet; [16])
7: Redroot pigweed plant response rating (pigweed; [16])
